Test results taken from ChEMBL document CHEMBL3580570, “Discovery and SAR study of a sulfonamide hydroxamic acid inhibitor for the botulinum neurotoxin serotype A light chain” (Medchemcomm, 2014).

Target: Botulinum neurotoxin type A (Clostridium botulinum, UniProt P0DPI0)
Assay: Competitive inhibition of Clostridium botulinum BoNT/A LC using SNAPtide as substrate after 10 mins by FRET assay

Botulinum neurotoxin type A, sequence (P0DPI0 2-448 limits assumed): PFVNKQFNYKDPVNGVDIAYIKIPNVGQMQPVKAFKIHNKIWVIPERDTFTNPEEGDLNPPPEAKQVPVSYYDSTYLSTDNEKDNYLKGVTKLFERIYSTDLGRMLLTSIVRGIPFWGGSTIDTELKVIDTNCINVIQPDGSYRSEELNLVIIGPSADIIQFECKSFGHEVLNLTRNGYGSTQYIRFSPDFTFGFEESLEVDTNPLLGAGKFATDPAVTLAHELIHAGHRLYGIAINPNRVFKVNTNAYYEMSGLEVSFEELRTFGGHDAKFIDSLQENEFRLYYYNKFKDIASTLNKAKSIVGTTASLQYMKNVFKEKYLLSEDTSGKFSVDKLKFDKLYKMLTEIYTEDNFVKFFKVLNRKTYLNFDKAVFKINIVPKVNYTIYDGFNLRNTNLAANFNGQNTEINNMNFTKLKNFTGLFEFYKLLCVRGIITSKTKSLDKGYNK

Row | SMILES | Ki | IC50
1 | O=C(NO)[C@@H]1C[C@@H](Oc2ccc(Cl)cc2)CN1S(=O)(=O)c1ccc(Cl)cc1 | 6.3 µM | –
2 | CC[C@H](C)[C@H](NS(=O)(=O)c1ccc(-c2ccc(F)cc2)cc1)C(=O)NO | – | 9.6 µM
3 | CC[C@H](C)[C@H](NS(=O)(=O)c1ccc(-c2ccc(NC(C)=O)cc2)cc1)C(=O)NO | – | > 100 µM
4 | CC[C@H](C)[C@H](NS(=O)(=O)c1ccc(-c2ccc(OC)cc2)cc1)C(=O)NO | – | > 100 µM
5 | CC[C@H](C)[C@H](NS(=O)(=O)c1ccc(-c2ccccc2)cc1)C(=O)NO | – | 27.7 µM
6 | CC[C@H](C)[C@H](NS(=O)(=O)c1cccc(-c2ccc(Cl)cc2)c1)C(=O)NO | – | 8.14 µM
7 | CC[C@H](C)[C@H](NS(=O)(=O)c1ccc2c(c1)OCCO2)C(=O)NO | – | 20.7 µM
8 | CC[C@H](C)[C@H](NS(=O)(=O)c1ccccc1)C(=O)NO | – | > 100 µM
9 | CC[C@H](C)[C@@H](NS(=O)(=O)c1ccc(-c2ccc(Cl)cc2)cc1)C(=O)NO | – | 11.8 µM
10 | CC[C@@H](C)[C@H](NS(=O)(=O)c1ccc(-c2ccc(Cl)cc2)cc1)C(=O)NO | – | 41.8 µM
11 | CC[C@@H](C)[C@@H](NS(=O)(=O)c1ccc(-c2ccc(Cl)cc2)cc1)C(=O)NO | – | 6.91 µM
12 | CC(C)C[C@@H](NS(=O)(=O)c1ccc(-c2ccc(Cl)cc2)cc1)C(=O)NO | – | 25.9 µM
13 | CC(C)C[C@H](NS(=O)(=O)c1ccc(-c2ccc(Cl)cc2)cc1)C(=O)NO | – | 24.8 µM
14 | CC(C)[C@H](NS(=O)(=O)c1ccc(-c2ccc(Cl)cc2)cc1)C(=O)NO | – | 38.2 µM
15 | O=C(NO)[C@H](Cc1ccccc1)NS(=O)(=O)c1ccc(-c2ccc(Cl)cc2)cc1 | – | > 100 µM
16 | O=C(NO)[C@@H]1CCCN1S(=O)(=O)c1ccc(-c2ccc(Cl)cc2)cc1 | – | > 100 µM
17 | CC[C@H](C)[C@H](NS(=O)(=O)c1ccc(-c2ccc(Cl)cc2)cc1)C(=O)O | – | > 100 µM
18 | CC[C@H](C)[C@H](NS(=O)(=O)c1ccc(-c2ccc(Cl)cc2)cc1)C(N)=O | – | > 100 µM
19 | CC[C@H](C)[C@H](NS(=O)(=O)c1ccc(-c2ccc(Cl)cc2)cc1)C(=O)NO | – | 10.1 µM
20 | CC[C@H](C)[C@H](NS(=O)(=O)c1ccc(-c2ccc(C)cc2)cc1)C(=O)NO | – | > 100 µM
21 | CC[C@@H](C)[C@@H](NS(=O)(=O)c1cccc(-c2ccc(Cl)cc2)c1)C(=O)NO | – | 0.95 µM
